The values that follow come from patent US8138174B2, “Compounds with a combination of cannabinoid CB1 antagonism and serotonin reuptake inhibition” (Solvay Pharmaceuticals B.V., priority 2007, dated 2012).

Like-named read-outs stand apart in the source and are kept apart here.

Experiment [1] addresses human cannabinoid CB1 receptor (Homo sapiens, UniProt P21554). Nature of the experiment: In vitro affinity for human cannabinoid CB1 receptors ([3H]CP-55,940 binding, CHO cell membranes). As to conditions: radioligand [3H]-CP-55,940; membranes of CHO cells stably transfected with human CB1 receptor; read-out: CB1 receptor binding [3H]-CP-55,940 pKi (converted). How it is done: In vitro affinity for human cannabinoid CB1 receptors
After incubation of a freshly prepared cell membrane preparation with the [^3H]-ligand, with or without addition of compounds of the invention, separation of bound and free ligand is performed by filtration over glassfiber filters. Radioactivity on the filter is measured by liquid scintillation counting.

The target in experiment [2] is T1, serotonin reuptake sites (Rattus norvegicus, UniProt P31652).
T1 construct: from tissue
T1 sequence (P31652 whole entry): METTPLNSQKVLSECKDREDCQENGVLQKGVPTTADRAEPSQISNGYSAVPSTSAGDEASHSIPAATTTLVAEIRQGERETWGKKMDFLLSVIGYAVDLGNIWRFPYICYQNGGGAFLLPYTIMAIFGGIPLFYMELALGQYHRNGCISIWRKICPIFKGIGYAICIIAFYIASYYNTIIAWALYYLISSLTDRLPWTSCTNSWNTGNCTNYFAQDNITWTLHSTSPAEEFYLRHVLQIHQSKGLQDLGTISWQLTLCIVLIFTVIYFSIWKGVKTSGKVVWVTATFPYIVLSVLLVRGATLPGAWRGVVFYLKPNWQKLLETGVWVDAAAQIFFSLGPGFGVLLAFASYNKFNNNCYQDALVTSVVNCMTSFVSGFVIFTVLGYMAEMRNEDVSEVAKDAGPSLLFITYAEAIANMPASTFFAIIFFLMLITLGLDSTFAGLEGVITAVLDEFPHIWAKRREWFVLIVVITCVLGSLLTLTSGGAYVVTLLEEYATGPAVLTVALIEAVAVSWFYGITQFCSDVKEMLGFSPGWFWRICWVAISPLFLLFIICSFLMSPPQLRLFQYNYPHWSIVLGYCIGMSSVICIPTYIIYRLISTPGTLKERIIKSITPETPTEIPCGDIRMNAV
Description: In vitro affinity for serotonin reuptake sites ([3H]-paroxetine binding, Habert 1985).

Setting [3] is: radioligand [3H]-paroxetine, read-out: 5-HT reuptake binding [3H]-paroxetine pKi (converted).

Chain of human cannabinoid CB1 receptor (P21554 whole entry): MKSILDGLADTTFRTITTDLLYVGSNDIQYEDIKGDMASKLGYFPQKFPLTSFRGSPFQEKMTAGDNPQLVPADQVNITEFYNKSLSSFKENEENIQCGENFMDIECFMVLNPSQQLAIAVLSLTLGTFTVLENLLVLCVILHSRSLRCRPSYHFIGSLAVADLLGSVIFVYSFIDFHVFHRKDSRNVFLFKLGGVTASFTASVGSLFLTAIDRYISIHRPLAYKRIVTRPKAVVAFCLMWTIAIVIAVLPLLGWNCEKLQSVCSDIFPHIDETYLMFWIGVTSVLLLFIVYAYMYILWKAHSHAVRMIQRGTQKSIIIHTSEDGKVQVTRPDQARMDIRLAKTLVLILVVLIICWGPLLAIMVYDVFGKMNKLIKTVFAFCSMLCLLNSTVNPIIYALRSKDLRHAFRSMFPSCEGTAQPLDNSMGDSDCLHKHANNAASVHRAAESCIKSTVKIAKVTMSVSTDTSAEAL

Turning to `CN[C@H]1CC[C@@H](c2ccc(Cl)c(Cl)c2)c2ccccc21` [sertraline], the Ki in experiment [1] is over 10000 nM.
`CCc1c(C(=O)N2CCN(CCCCc3c[nH]c4ccc(F)cc34)CC2)nc(-c2ccccc2Cl)n1-c1ccc(Cl)cc1` [Compound 3, [2-(2-Chlorophenyl)-1-(4-chlorophenyl)-5-ethyl-1H-imidazole-4-yl] {4-[4-(5-flouro-1H-indol-3-yl)butyl]piperazin-1-yl}methanone]: the values for the Ki in experiment [1] and in experiment [2] (setting [3]) were 31.6 nM and 20 nM, respectively.
As for `CN(C)CCC=C1c2ccccc2CCc2ccccc21` [amitriptyline], in experiment [1], the Ki was over 10000 nM.
For `NCCO/N=C(/CCCCCCN/C(=N/S(=O)(=O)c1ccc(Cl)cc1)N1CC(c2ccccc2)C(c2ccc(Cl)cc2)=N1)c1ccc(C(F)(F)F)cc1` (stereo not shown) [Compound 1], the results for the Ki in experiment [1] and in experiment [2] (setting [3]) were 251 nM and 15.8 nM, respectively. Besides, in experiment [2], the “affinity for 5-HT reuptake sites / serotonin reuptake inhibition (in words)” value is reported as “as potent a serotonin reuptake inhibitor as fluoxetine”.
On to `c1ccc2c(CCC3CCNCC3)c[nH]c2c1` [indalpine], for which the Ki in experiment [1] is over 1000 nM. Besides, the “5-HT reuptake binding [3H]-paroxetine pKi” value in experiment [2] (radioligand [3H]-paroxetine) was 8.6.
On to `CCc1c(C(=O)NCCCCCCC(=NOCCN)c2ccc(C(F)(F)F)cc2)nc(-c2ccccc2Cl)n1-c1ccc(Cl)cc1` (racemic) [Compound 2, 2-(2-Chlorophenyl)-1-(4-chlorophenyl)-5-ethyl-1H-imidazole-4-carboxylic acid [7-(2-amino-ethoxyimino)-7-[4-(trifluoromethyl)phenyl]heptyl]amide], for which the Ki was 39.8 nM in experiment [1] and 200 nM in experiment [2] (setting [3]).
Regarding `CCc1c(C(=O)NN2CCCCC2)nc(-c2ccccc2Cl)n1-c1ccc(Cl)cc1` [WO 03/027076], the “affinity for 5-HT reuptake sites / serotonin reuptake inhibition (in words)” value in experiment [2] was “completely inactive”. Also, in experiment [2] (read-out: 5-HT reuptake binding [3H]-paroxetine pKi (converted)), the Ki is over 31600 nM.
Consider `CN=C(NS(=O)(=O)c1ccc(Cl)cc1)N1C[C@H](c2ccccc2)C(c2ccc(Cl)cc2)=N1` [SLV319], for which the Ki in experiment [2] (setting [3]) is over 10000 nM.
In the case of `Fc1ccc([C@@H]2CCNC[C@H]2COc2ccc3c(c2)OCO3)cc1` [paroxetine], the Ki in experiment [1] is over 1000 nM.
Consider `CN(C)CCCN1c2ccccc2CCc2ccccc21` [imipramine], for which, in experiment [1], the Ki was over 1000 nM.
With `Cc1c(C(=O)NN2CCCCC2)nn(-c2ccc(Cl)cc2Cl)c1-c1ccc(Cl)cc1` [rimonabant], in experiment [2] (setting [3]), the Ki was 5010 nM.
As to `CN(C)CCCC1(c2ccc(F)cc2)OCc2cc(C#N)ccc21` (stereo not shown) [citalopram], the Ki in experiment [1] is over 10000 nM.
For `O=S(=O)(/N=C(/N1CCN(CCCCc2c[nH]c3ccc(F)cc23)CC1)N1CC(c2ccccc2)C(c2ccc(Cl)cc2)=N1)c1ccc(Cl)cc1` (stereo not shown) [Compound 4], the Ki in experiment [1] was 251 nM; in experiment [2] (setting [3]) it was 25.1 nM.
Consider `Fc1ccc2[nH]cc(CCCCN3CCNCC3)c2c1` [compound A], for which the Ki in experiment [1] is over 1000 nM; in experiment [2], 1.26 nM.
